Assay results: US10485235B2, “Aryloxypyrimidinyl ethers as herbicides” (FMC Corporation, priority 2015, dated 2019)

Key:
Assay type in all cases: in vivo
[1] = tested on: galium (catchweed bedstraw, Galium aparine); assay: Test A postemergence, galium; settings: postemergence, 0 to 100 scale, 0 is no effect, 100 is complete control, approximately 10 days
How it was run: (§1)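 Compounds, formulated in a surfactant-containing solvent mixture that is non-phytotoxic, are sprayed onto soil after seeding (preemergence) or onto young plants, one to two leaves and 2 to 10 cm high (postemergence). Response is scored visually after around 10 days, where 0 means no effect and 100 means complete control.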

[2] = tested on: sedge, umbrella (small-flower umbrella sedge, Cyperus difformis); assay: Test B flooded paddy test, umbrella sedge; settings: 250 g ai/ha, Flood; visual rating after 13 to 15 days; scale 0 to 100, 0 is no effect, 100 is complete control
How it was run: (§2)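 Seedlings at the 2-leaf stage are flooded to 3 cm and treated via the paddy water. Greenhouse plants are compared with controls after 13 to 15 days and given a 0 (no effect) to 100 (complete control) rating.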

[3] = tested on: ryegrass, Italian (Italian ryegrass, Lolium multiflorum); assay: Test A postemergence, Italian ryegrass; settings: postemergence, 0 to 100 scale, 0 is no effect, 100 is complete control, approximately 10 days
How it was run: as §1

[4] = tested on: ragweed (common ragweed, Ambrosia elatior); assay: Test A preemergence, ragweed; settings: Preemergence, 0 to 100 scale (0 no effect, 100 complete control)
How it was run: as §1

[5] = tested on: kochia (Kochia scoparia); assay: Test A preemergence, kochia; settings: Preemergence, 0 to 100 scale (0 no effect, 100 complete control)
How it was run: as §1

[6] = tested on: barnyardgrass (Echinochloa crus-galli); assay: Test A preemergence, barnyardgrass; settings: Preemergence, 0 to 100 scale (0 no effect, 100 complete control)
How it was run: as §1

[7] = tested on: foxtail, giant (giant foxtail, Setaria faberii); assay: Test A preemergence, giant foxtail; settings: Preemergence, 0 to 100 scale (0 no effect, 100 complete control)
How it was run: as §1

[8] = tested on: corn (Zea mays); assay: Test A postemergence, corn; settings: postemergence, 0 to 100 scale, 0 is no effect, 100 is complete control, approximately 10 days
How it was run: as §1

[9] = tested on: pigweed (Amaranthus retroflexus); assay: Test A postemergence, pigweed; settings: postemergence, 0 to 100 scale, 0 is no effect, 100 is complete control, approximately 10 days
How it was run: as §1

[10] = tested on: ragweed (common ragweed, Ambrosia elatior); assay: Test A postemergence, ragweed; settings: postemergence, 0 to 100 scale, 0 is no effect, 100 is complete control, approximately 10 days
How it was run: as §1

[11] = tested on: blackgrass (Alopecurus myosuroides); assay: Test A postemergence, blackgrass; settings: postemergence, 0 to 100 scale, 0 is no effect, 100 is complete control, approximately 10 days
How it was run: as §1

[12] = tested on: barnyardgrass (Echinochloa crus-galli); assay: Test A postemergence, barnyardgrass; settings: postemergence, 0 to 100 scale, 0 is no effect, 100 is complete control, approximately 10 days
How it was run: as §1

[13] = tested on: rice (Oryza sativa); assay: Test B flooded paddy test, rice; settings: 250 g ai/ha, Flood; visual rating after 13 to 15 days; scale 0 to 100, 0 is no effect, 100 is complete control
How it was run: as §2

[14] = tested on: barnyardgrass (Echinochloa crus-galli); assay: Test B flooded paddy test, barnyardgrass; settings: 250 g ai/ha, Flood; visual rating after 13 to 15 days; scale 0 to 100, 0 is no effect, 100 is complete control
How it was run: as §2

[15] = tested on: kochia (Kochia scoparia); assay: Test A postemergence, kochia; settings: postemergence, 0 to 100 scale, 0 is no effect, 100 is complete control, approximately 10 days
How it was run: as §1

[16] = tested on: pigweed (Amaranthus retroflexus); assay: Test A preemergence, pigweed; settings: Preemergence, 0 to 100 scale (0 no effect, 100 complete control)
How it was run: as §1

[17] = tested on: wheat (Triticum aestivum); assay: Test A postemergence, wheat; settings: postemergence, 0 to 100 scale, 0 is no effect, 100 is complete control, approximately 10 days
How it was run: as §1

[18] = tested on: ducksalad (Heteranthera limosa); assay: Test B flooded paddy test, ducksalad; settings: 250 g ai/ha, Flood; visual rating after 13 to 15 days; scale 0 to 100, 0 is no effect, 100 is complete control
How it was run: as §2

[19] = tested on: ryegrass, Italian (Italian ryegrass, Lolium multiflorum); assay: Test A preemergence, Italian ryegrass; settings: Preemergence, 0 to 100 scale (0 no effect, 100 complete control)
How it was run: as §1

[20] = tested on: foxtail, giant (giant foxtail, Setaria faberii); assay: Test A postemergence, giant foxtail; settings: postemergence, 0 to 100 scale, 0 is no effect, 100 is complete control, approximately 10 days
How it was run: as §1

Row | Structure (SMILES) | Plant response rating, Galium ([1]; 125 g ai/ha) | Plant response rating, Sedge, Umbrella [2] | Plant response rating, Ryegrass, Italian ([3]; 125 g ai/ha) | Plant response rating, Ragweed ([4]; 125 g ai/ha) | Plant response rating, Kochia ([5]; 125 g ai/ha) | Plant response rating, Barnyardgrass ([6]; 125 g ai/ha) | Plant response rating, Foxtail, Giant ([7]; 125 g ai/ha) | Plant response rating, Corn ([8]; 125 g ai/ha) | Plant response rating, Pigweed ([9]; 125 g ai/ha) | Plant response rating, Ragweed ([10]; 125 g ai/ha) | Plant response rating, Blackgrass ([11]; 125 g ai/ha) | Plant response rating, Barnyardgrass ([12]; 125 g ai/ha) | Plant response rating, Rice [13] | Plant response rating, Barnyardgrass [14] | Plant response rating, Kochia ([15]; 125 g ai/ha) | Plant response rating, Pigweed ([16]; 125 g ai/ha) | Plant response rating, Wheat ([17]; 125 g ai/ha) | Plant response rating, Ducksalad [18] | Plant response rating, Ryegrass, Italian ([19]; 125 g ai/ha) | Plant response rating, Foxtail, Giant ([20]; 125 g ai/ha) | other results
1 | FC(F)(F)CCCCOc1c(Br)cccc1Oc1ncc(Cl)cn1 [Compound 33] | 90 | 95 | 20 | 0 | 20 | 50 | 100 | 20 | 100 | 10 | 40 | 60 | 0 | 0 | 90 | 90 | 10 | 30 | 20 | 60 | Plant response rating, Galium ([1]; 31 g ai/ha): 50; Plant response rating, Ryegrass, Italian ([3]; 31 g ai/ha): 0; Plant response rating, Ragweed ([4]; 31 g ai/ha): 0; Plant response rating, Kochia ([5]; 31 g ai/ha): 0; Plant response rating, Barnyardgrass ([6]; 31 g ai/ha): 10; Plant response rating, Foxtail, Giant ([7]; 31 g ai/ha): 60; Plant response rating, Corn ([8]; 31 g ai/ha): 10; Plant response rating, Pigweed ([9]; 31 g ai/ha): 80; Plant response rating, Ragweed ([10]; 31 g ai/ha): 0; Plant response rating, Blackgrass ([11]; 31 g ai/ha): 10; Plant response rating, Barnyardgrass ([12]; 31 g ai/ha): 10; Plant response rating, Kochia ([15]; 31 g ai/ha): 50; Plant response rating, Pigweed ([16]; 31 g ai/ha): 10; Plant response rating, Wheat ([17]; 31 g ai/ha): 0; Plant response rating, Ryegrass, Italian ([19]; 31 g ai/ha): 0; Plant response rating, Foxtail, Giant ([20]; 31 g ai/ha): 20
2 | CC(COc1c(C#N)cccc1Oc1ncc(Cl)cn1)CC(F)(F)F (stereo not drawn) [Compound 34] | 70 | 75 | 0 | 0 | 80 | 70 | 100 | 20 | 100 | 10 | 20 | 20 | 20 | 0 | 90 | 100 | 10 | 40 | 10 | 40 | Plant response rating, Galium ([1]; 500 g ai/ha): 90; Plant response rating, Ryegrass, Italian ([3]; 500 g ai/ha): 20; Plant response rating, Ragweed ([4]; 500 g ai/ha): 10; Plant response rating, Kochia ([5]; 500 g ai/ha): 100; Plant response rating, Barnyardgrass ([6]; 500 g ai/ha): 100; Plant response rating, Foxtail, Giant ([7]; 500 g ai/ha): 100; Plant response rating, Corn ([8]; 500 g ai/ha): 40; Plant response rating, Pigweed ([9]; 500 g ai/ha): 100; Plant response rating, Ragweed ([10]; 500 g ai/ha): 10; Plant response rating, Blackgrass ([11]; 500 g ai/ha): 60; Plant response rating, Barnyardgrass ([12]; 500 g ai/ha): 50; Plant response rating, Kochia ([15]; 500 g ai/ha): 100; Plant response rating, Pigweed ([16]; 500 g ai/ha): 100; Plant response rating, Wheat ([17]; 500 g ai/ha): 20; Plant response rating, Ryegrass, Italian ([19]; 500 g ai/ha): 40; Plant response rating, Foxtail, Giant ([20]; 500 g ai/ha): 90
3 | FC(F)=C(F)CCOc1c(Br)cccc1Oc1ncc(Cl)cn1 [Compound 38] | 50 | 100 | 10 | 0 | 70 | 70 | 100 | 20 | 80 | 10 | 10 | 30 | 0 | 0 | 70 | 100 | 0 | 75 | 10 | 40 | Plant response rating, Galium ([1]; 31 g ai/ha): 10; Plant response rating, Ryegrass, Italian ([3]; 31 g ai/ha): 0; Plant response rating, Ragweed ([4]; 31 g ai/ha): 0; Plant response rating, Kochia ([5]; 31 g ai/ha): 0; Plant response rating, Barnyardgrass ([6]; 31 g ai/ha): 10; Plant response rating, Foxtail, Giant ([7]; 31 g ai/ha): 30; Plant response rating, Corn ([8]; 31 g ai/ha): 10; Plant response rating, Pigweed ([9]; 31 g ai/ha): 40; Plant response rating, Ragweed ([10]; 31 g ai/ha): 0; Plant response rating, Blackgrass ([11]; 31 g ai/ha): 0; Plant response rating, Barnyardgrass ([12]; 31 g ai/ha): 10; Plant response rating, Kochia ([15]; 31 g ai/ha): 20; Plant response rating, Pigweed ([16]; 31 g ai/ha): 0; Plant response rating, Wheat ([17]; 31 g ai/ha): 0; Plant response rating, Ryegrass, Italian ([19]; 31 g ai/ha): 0; Plant response rating, Foxtail, Giant ([20]; 31 g ai/ha): 10
